Reference: US20030008024A1, “Therapeutic composition of herbal extracts and the uses thereof” (Advanced Herbal Therapeutics, Inc., priority 2001, published 2003)
Read-outs that look alike come from different tables or passages of the source.

Tests used:
[1] = test system: writhing reaction of mice; test: Writhing reaction induced by HAC; format: in vivo, Kunming mice; conditions: 0.01 g/kg once daily 3 days; first 20 minutes
Experimental: A total of 50 Kunming mice weighing 18-22 g with equal sex distribution were randomly divided into 5 groups. The mice were treated p.o. with different doses of AHT-323, tragacanth, or Morphine hydrochloride once daily for 3 days. One hour later, each mouse was treated with 0.2 ml saline containing 0.7% HAC, i.p. The time to first writhing and the number of writhing during the first 20 minutes were evaluated.

[2] = test system: DTH of mice induced by DNFB; test: Delayed type hypersensitivity of mouse ear induced by DNFB; format: in vivo, NIH mice
Experimental: Totals of 50 NIH mice with equal sex were randomly divided into 5 groups. Each mouse was sensitized with 0.025 ml DNBF (1%) at day 0. Five days later […], 0.01 ml DNFB was pasted as aggression on the right ear. The mice were sacrificed 24 hours later and the weight of left and right ears were measured, the difference of which was used to evaluate reaction intensity of the delayed type hypersensitivity (DTH) of the mice.
In this experiment, AHT-323 was given for consecutive six days (0˜5 days) from the day when the mice were first sensitized with DNFB.
Totals of 60 NIH mice were used. AHT-323 treatments were given at different intervals as the following: from d-2 (2 days before first sensitizing) to Day 0 (first sensitization day), from Day-2 to Day 2 (2 days after first sensitizing), from Day-2 to Day5, and from Day 0 to Day 4, respectively. The swelling rate of mouse ear was determined.
Another 50 NIH mice were used to compare AHT-323 with cyclophosphamide or cytoxan (Cy) on the effects on DTH of mice. The mice were treated with either AHT-323 or Cy alone or both at different intervals.

[3] = test system: hemolysin antibody formation; test: Hemolysin antibody formation in SRBC-immunized normal mice; format: in vivo, mice (NIH, ICR, KM); conditions: dosing day 0˜7; for Hymolysin Antibody / inhibition at 20 mg/kg: 0.02 g/kg
Experimental: Totals of 150 mice (50 NIH mice, 50 ICR mice and 50 KM mice) weighing 18-22 g with equal sex distribution were divided into 10 groups, each of which was immunized with 0.2 ml 5% sheep red blood cells (SRBC) i.p. once. AHT-323 was given from d0 to d6. Seven days after immunization, mice were sacrificed and blood was taken from the eyeball. Assay for hemolysin antibody formation was performed and its inhibition rate was evaluated.

[4] = test system: plaque forming cells (PFC) and serum IgM of AA mice; test: Humoral immunity of AA mice (PFC, IgM); format: in vivo, NIH mice; conditions: 0.020 g/kg
Experimental: An experimental model of adjuvant arthritis was established in NIH mice weighing 20±2 g by intradermal injection of 0.05 ml Freund's Complete Adjuvant (FCA) to the planter of hind paw. Three weeks later, the mice were treated with different dose of AHT-323 for 5 days. At the same time, they were sensitized with 0.5 ml 10% SRBC i.p. The mice were sacrificed 5 days later. The spleen cells were prepared and the plaque forming cells (PFC) were measured, the serum was prepared and IgM was determined.

[5] = test system: TNFα; test: TNFα content of peritoneal macrophage suspension after oral dosing (ELISA); format: in vivo, ICR mice; conditions: 0.02 g/kg once daily 10 days
Experimental: (§1) Total of 50 ICR mice weighing 18˜22 g with equal sex were divided into 5 groups. The mice were administrated orally with different doses of AHT-323 or control (0.5% tragacanth) once daily for 10 days. 24 hours after the last dosing, the peritoneal macrophage suspensions were prepared to measure TNFα content and IL-2 activity.
An ELISA assay was performed using anti-TNFα monoclonal antibody. The TNFα concentration was calculated based on the OD value at 450 nm.

[6] = test system: IL-2; test: IL-2 activity after oral dosing (IL-2 dependent CTLL cells); format: in vivo, ICR mice; conditions: 0.02 g/kg once daily 10 days
Experimental: as §1
The IL-2 activity of macrophage was measured with IL-2 dependent CTLL cells by ELISA.

[7] = test system: IL-1; test: IL-1 activity in peritoneal macrophages after oral dosing (radio-ELISA); format: in vivo, NIH mice; conditions: 0.02 g/kg p.o. once daily 10 days
Experimental: (§2) Totals of 50 NIH mice weighing 18-22g with equal sex distribution were divided into 5 groups and administered p.o. with different doses of AHT-323 or cyclophosphamide once daily for 10 days. 24h after the last dosing, mice were sacrificed and peritoneal macrophage and spleen cells suspension were prepared to measure IL-1 and IL-6 activity, respectively.
Method of testing IL-1: IL-1 activity in peritoneal macrophages was measured with radio-ELISA and the result was shown in Table 18.

[8] = test system: IL-6; test: IL-6 activity in splenocytes after oral dosing (ELISA); format: in vivo, NIH mice; conditions: 0.02 g/kg p.o. once daily 10 days
Experimental: as §2

[9] = test system: splenocyte lymphocytes stimulated by Con A; test: Lymphocyte blastogenesis of normal mice stimulated by Con A (3H-TdR); format: in vivo, NIH mice; conditions: 0.02 g/kg p.o. once daily 10 days
Experimental: 50 NIH mice with equal sex distribution were randomly divided into 5 groups. The mice were treated p.o. with different doses of AHT-323 or positive control drug once daily for 10 days. Twenty four hours after the last dosing, mice were sacrificed. The splenocytes were obtained and Con A (Concanavalin) was used to stimulate lymphocytes for transformation. ^3H-TdR adulteration method was used and the result was shown in table 20.

[10] = test system: CD4 and CD8; test: CD4 and CD8 content of mouse splenocytes (biotin-labeled ELISA); format: in vivo, ICR mice; conditions: 0.02 g/kg once daily ten days
Experimental: (§3) Totals of 50 ICR mice weighing 18˜22 g with equal sex distribution were randomly divided into five groups. The mice were administrated orally with different doses of AHT-323 or positive control drug respectively, once daily for consecutive ten days. 24 hours after the last dosing, the mice were sacrificed and splenocyte suspension was prepared for measurement of CD4 and CD8 content and NK cells activity.

[11] = test system: NK cells; test: NK cells activity of mouse splenocytes (colorimetry); format: in vivo, ICR mice; conditions: 0.02 g/kg once daily ten days
Experimental: as §3

[12] = Mus musculus, 0 h, read-out: Inhibition rate (%)
[13] = Table 11, 0.1×3 g/kg, dosing day 0, 2, 4 each

CN1CC[C@]23c4c5ccc(O)c4O[C@H]2[C@@H](O)C=C[C@H]3[C@H]1C5.Cl [Morphine, Morphine hydrochloride]
Torsion number [1]: 0.0 ± 0.0

O=P1(N(CCCl)CCCl)NCCCO1 (stereo not drawn) [Cy, cyclophosphamide]
inhibition at 20 mg/kg [2, 12]: 64.9%
inhibition at 25 mg/kg [2, 12]: 29%
inhibition at 250 mg/kg ([2]; Mus musculus, read-out: Inhibition rate (%)): -10.6%
% of ear Swelling ([2]; Table 9, 0.020 g/kg, dosing day 0˜5): 5.4 ± 2.6%
% of ear Swelling ([2]; Table 10, 0.025 g/kg, dosing day 0˜5): 32.8 ± 7.9%
% of ear Swelling [2, 13]: 24.10 ± 7.28%
Inhibition rate (%) [2, 13]: 39.8%
% of ear Swelling ([2]; Table 11, 0.25 g/kg, dosing day −3): 44.3 ± 7.9%
Hymolysin Antibody ([3]; ICR mice): 28 ± 7
Hymolysin Antibody ([3]; KM mice): 46 ± 18
inhibition at 20 mg/kg ([3]; Mus musculus, 0 h, ICR mice, read-out: Inhibition Rate (%)): 77.4%
inhibition at 20 mg/kg ([3]; Mus musculus, 0 h, KM mice, read-out: Inhibition Rate (%)): 81.1%
inhibition at 250 mg/kg ([3]; Mus musculus, 0 h, NIH mice, 0.25 g/kg, read-out: Inhibition Rate (%)): 75.4%
Hemolysin Antibody (HC50) ([3]; NIH mice, 0.25 g/kg): 33 ± 8
IgM (Log2) [4]: 6.950 ± 0.597 Log2
PFC (OD415) [4]: 0.835 ± 0.015 OD415
TNFα [5]: 42.2 ± 9.6 pg/mL
IL-2 [6]: 10.1 ± 3.0 IU/ml
IL-1 [7]: 44.5 ± 7.7 ng/mL
IL-6 [8]: 49.6 ± 6.7 IU/ml
Cpm [9]: 9922 ± 1145 Cpm
Stimulate Index [9]: 13.06 ± 2.28
CD4 (%) [10]: 11.50 ± 2.50 %
CD4/CD8 [10]: 2.91 ± 0.53
CD8 (%) [10]: 4.10 ± 1.20 %
NK Activity [11]: 23.10 ± 3.66
